Reference: patent US20260273011A1, “COMPOSITION COMPRISING STEWARTIA PSEUDOCAMELLIA EXTRACT AS ACTIVE INGREDIENT FOR PREVENTION OR TREATMENT OF DEMENTIA” (priority 2022, published 2026)
Read-outs that look alike come from different tables or passages of the source. Ends that are not written are not given here.

Tests used:
[1] = tested on: human neuroblastoma SH-SY5Y cells; conditions: H2O2 50 μM, 24 hours
Experimental: First, the cells were plated into a 96-well plate at a concentration of 5×10^3 cells/well, and then cultured for 24 hours at 95% humidity, 5% CO2, and 37° C. for stabilization. After removing the medium, 10 μl of H2O2 diluted with fresh medium was treated at each concentration, and the resulting mixture was allowed to react for 24 hours at 95% humidity, 5% CO2, and 37° C.
The viability of the cells was measured using the MTS (CellTiter 96® AQueous One Solution Cell Proliferation Assay, Promega, USA) reagent. In other words, 10 μl of the reagent was treated per well, and after a reaction at 37° C. for 60 minutes, the absorbance was measured at 490 nm using a microplate reader (Molecular Devices LLC, VersaMax ELISA Microplate Reader, USA).

[2] = tested on: human neuroblastoma SH-SY5Y cells; assay: Neuroprotective effect against H2O2 cytotoxicity (MTS); type: cell-based; conditions: 50 μM H2O2 treatment
Experimental: After removing the medium, […], which has a cell viability of about 50%, was treated with fresh medium, and then 10 μl of the samples of Examples 1 to 4 and Comparative Example 1 were treated at each concentration, and the resulting mixtures were allowed to react at 95% humidity, 5% CO2, and 37° C. for 24 hours.

[3] = tested on: human neuroblastoma SH-SY5Y cells; assay: Neuroprotective effect against Aβ-peptide 25-35 cytotoxicity (MTS); type: cell-based; set-up: dose or concentration left out as unconfirmed; conditions: Aβ treatment
Experimental: (§1) To measure the neuronal cell death concentration by Aβ 25-35, Aβ-protein fragment 25-35 (Sigma-Aldrich, A4559-1 MG) was purchased and used.
(§2) For the aggregation of Aβ, it was dissolved in distilled water and allowed to react at 37° C. for five days at 150 rpm.

[4] = tested on: human neuroblastoma SH-SY5Y cells; assay: Human neuroblastoma SH-SY5Y cell toxicity (MTS); type: cell-based
Experimental: Neuronal cells (human neuroblastoma SH-SY5Y) were obtained from the Korean Cell Line Bank (KCLB, Seoul, Korea). The medium used was a minimum essential medium (SH30024.01, Cytiva, USA) containing 10% fetal bovine serum (FBS, Gibco, CA, USA) medium, 25 mM 4-(2-hydroxyethyl)-1-piperazine ethanesulfonic acid (HEPES), and 25 mM NaHCO3. The cells were cultured in an incubator controlled at 95% humidity, 5% CO2, and 37° C., and an antibiotic for the medium (penicillin-streptomycin, Gibco, CA, USA) was used to suppress microbial contamination or proliferation. When the cells covered about 80% of the dish, the dish was washed with phosphate-buffered saline-ethylenediaminetetraacetic acid (PBS-EDTA, Thermo Fisher Scientific, Massachusetts, USA), and then 1 ml of 0.05% trypsin-EDTA (Gibco, Thermo Fisher Scientific, Massachusetts, USA) was used to detach the cells attached to the bottom of the dish and subculture them. The medium was exchanged with fresh medium every 48 to 72 hours to culture the cells.
After removing the medium, 100 μl of the sample diluted with fresh medium was applied and allowed to react with the cells for 24 hours in an incubator at 95% humidity, 5% CO2, and 37° C.
In other words, 1 ml of the reagent was diluted with 9 ml of medium (DMEM high glucose, free FBS), and 100 μl of the mixture was added to each well.

SH-SY5Y cells = assay: ROS generation suppression ability in neurons (DCF-DA, H2O2); type: cell-based, human; conditions: ursolic acid 0.1 to 5 μg/ml
Experimental: The generation of ROS is measured by the intensity of fluorescent material generation using 2′,7′-dichlorofluorescin diacetate (DCF-DA), and the principle is that 2′,7′-dichlorofluorescin (DCF) in a reduced or acetylated form releases a fluorescent material ([…]) when the acetate group is removed by the […] and ROS generated within cells.
SH-SY5Y cells were plated into a 96-well plate (100 μl) at a concentration of 5×10^4 cells/well and cultured for 24 hours. After the culture, the medium was removed, and the sample was treated at an appropriate concentration using a medium containing no serum and then cultured for 24 hours. After 24 hours, 100 μl of PBS was added and the resulting mixture was washed, and this process was repeated three times. DCF-DA dissolved in dimethyl sulfoxide (DMSO) was diluted to 20 μM (in PBS), and 100 μl of the diluted solution was added and incubated for 20 minutes. After adding 100 μl of 100 μM H2O2 (in PBS), the mixture was allowed to react for 30 minutes, and the fluorescence intensity was measured at 486 nm and 535 nm using an enzyme-linked immunosorbent assay (ELISA) reader.

[5] = tested on: human neuroblastoma SH-SY5Y cells; assay: Cell death concentration for Aβ-peptide 25-35 (MTS); type: cell-based; conditions: Aβ 20 μM, 24 hours
Experimental: as §1, §2

## OO [Example H2O2, Hydrogen peroxide]
[1]
  cell viability: approximately 50%

## C[C@H]1[C@H](C)CC[C@]2(C(=O)O)CC[C@]3(C)C(=CC[C@@H]4[C@@]5(C)CC[C@H](O)C(C)(C)[C@@H]5CC[C@]43C)[C@H]12 [ursolic acid]
[2]
  neuroprotective effect against H2O2 cytotoxicity: high cell protection efficacy
[3]
  neuroprotective effect against Aβ-peptide 25-35 cytotoxicity: significant effect
[4]
  concentration at which toxicity on neurons was exhibited: ≥ 10000 ng/mL
SH-SY5Y cells
  ROS generation suppression ability: significant suppression activity

## GSNKGAIIGLM [Aβ, Aβ-protein fragment 25-35]
[5]
  cell viability: approximately 50%
